Results published in patent US20140335052A1, “COMBINATION THERAPY FOR TREATING HCV INFECTION IN AN HCV-HIV COINFECTED PATIENT POPULATION” (BOEHRINGER INGELHEIM INTERNATIONAL GMBH, priority 2012, published 2014).
Marks after values point to notes of the source that are not given here.

Key:
[1] = Phase III trial of FDV plus PegIFN/RBV in HCV/HIV coinfected patients: safety (adverse events, HIV RNA suppression); type: in vivo, human
Protocol: (§1) Safety and Efficacy of 120 mg and 240 mg Compound (1) Once Daily in Combination With Pegylated Interferon Alpha 2a (PegIFN) and Ribavirin (RBV) for Treatment of Chronic Hepatitis C (HCV) Genotype 1 Infection in HIV/HCV Co-infected Patients. A Multinational, Randomised, Parallel Group, Open-label Trial.
(§2) The aim of this trial is to evaluate the efficacy and the safety of Compound (1) given for 12 or 24 weeks in combination with PegIFN/RBV given for 24 or up to 48 weeks in HCV treatment-naive or relapsers patients coinfected with HIV. Patients who achieve reduction of HCV viral load according to Early Treatment Success (ETS) criteria will be randomized 1:1 to stop triple therapy at 24 weeks, or continue PegIFN/RBV for 48 week treatment duration. Patients without ETS continue PegIFN/RBV for 48 week treatment duration.
(§3) Individuals co-infected with HCV/HIV who were HCV treatment-naïve (TN) or relapsed after previous HCV therapy were randomized to receive FDV 120 or 240 mg QD for 12 or 24 weeks, in combination with PegIFN (180 μg once weekly) and weight-based RBV for 24 or 48 weeks (response-guided). Patients on efavirenz- or PI-based antiretroviral therapy (ART) were allocated to receive FDV 240 mg or 120 mg QD, respectively; those receiving other ART or no ART were randomized to either FDV dose. Interim data remains blinded for FDV dose. Week 12 interim data are presented.
HCV RNA was BLD at Week 4/Week 12 in 64%/64% of patients not on ART, and in 63%/85% of patients receiving ART. […] For example, in a prior study in HCV GT1 mono-infected TN patients treated with 240 mg QD FDV plus PegIFN/RBV (Boehringer Ingelheim, data on file, Clinical Trial Report for study 1220.5, U12-2567-01), HCV RNA was BLQ at week 4 and BLD at week 12 in 94% (133/142) and 93% (132/142) of patients, respectively. […] These preliminary on-treatment efficacy data are promising given that a) 17% of the coinfected patients had cirrhosis (patients with cirrhosis were not included in the 1220.5 study), b) preliminary efficacy data in HCV/HIV coinfected represent sponsor-blinded results of both FDV dose groups (e.g., 120 mg QD and 240 mg QD FDV), and c) the HCV GT1/HIV co-infected patient population is historically a more difficult-to-treat patient population with substantially lower HCV cure rates with the current standard of care treatment of pegIFN and RBV when compared to HCV GT1 monoinfected patients. The most frequent adverse events (AEs) were those known for PegIFN/RBV treatment: nausea (37%), fatigue (33%) and diarrhea (27%). Serious AEs were reported in 32 (10%) patients (including 2 deaths; none considered related to study medications). To date, 18 patients discontinued early due to AEs.

[2] = test system: HCV genotype 1; test: Phase III trial of FDV plus PegIFN/RBV in HCV/HIV coinfected patients: virologic response (plasma HCV RNA), Week 12 interim data; type: in vivo, human; details: for Virologic response Week 4 BLD / Virologic response Week 12 BLD: HCV RNA <15 IU/mL, not detected; for Virologic response Week 4 BLQ / Virologic response Week 12 BLQ: HCV RNA <25 IU/mL; for Virologic response Week 4 BLQ: FDV 120 or 240 mg QD (dose blinded) plus PegIFN/RBV; for ETS (Week 4 BLQ and Week 8 BLD): early treatment success
Protocol: For the clinical trial described below, the Compound (1) drug product will be administered as a softgel capsule lipid-based formulation containing Compound (1) sodium salt. All references to “Compound (1)” in the below clinical study is the sodium salt form.
as §1, §2
• Sustained Virological Response (SVR): Plasma Hepatitis C Virus (HCV) Ribonucleic Acid (RNA) level <25 IU/mL, undetected at week 12 after the planned treatment duration.
HCV RNA level<25 IU/mL (undetected) 24 weeks after the originally planned treatment duration. • Early Treatment Success (ETS): Plasma HCV RNA level<25 IU/mL (detected or undetected) at Week 4 and HCV RNA<25 IU/mL, undetected at Week 8 and have not discontinued any study drug prior to week 24. • Alanine Aminotransferase normalisation: Alanine Aminotransferase in normal range 24 weeks after the end of the originally planned treatment duration
Inclusion criteria (selected): • 1. Chronic hepatitis C (HCV) genotype 1 infection • 2. Chronic Human Immunodeficiency Virus (HIV)-1 infection • 3. HCV treatment naive or HCV treatment experienced but only relapsers • 4. Age 18 to 70 years • 5. […] HCV viral load >1.000 IU/mL • 7. No AIDS-defining illness during 6 months prior to screening Exclusion criteria (selected): • 1. HCV infection of mixed genotype (1/2, 1/3, 1/4) • 2. Evidence of acute or chronic liver […] • 3. Hepatitis B virus (HBV) infection with presence of HBs-Ag • 4. Active malignancy or history or malignancy within the last 5 years • 5. Received concomitant systemic antiviral (other than antiretroviral), hematopoietic growth factor or immunomodulatory treatment in 28 days prior enrollment. • 6. Decompensated liver disease, as evidenced by ascites, hepatic encephalopathy, esophageal variceal bleeding, and/or laboratory values that add up to >/=7 points according tho the Child-Turcotte-Pugh classification • 7. Hemoglobin </=11 g/dL for women and </=12 g/dL for men • 8. Active autoimmune disease, including autoimmune hepatitis • 9. Known hypersensitivity to any ingredient of the study drugs
as §3

[3] = test system: HCV GT1; details: HCV GT1 mono-infected TN patients; 240 mg QD FDV plus PegIFN/RBV; study 1220.5; cited from earlier work
[4] = HCV/HIV coinfected patients (308 treated), interim
[5] = HCV/HIV co-infected TN patient population, interim data restated in text, FDV plus PegIFN/RBV
[6] = Relapsers (N = 69), FDV plus PegIFN/RBV
[7] = TN patients (N = 239), FDV plus PegIFN/RBV
[8] = Total (N = 308), FDV plus PegIFN/RBV
[9] = patients not on ART, FDV plus PegIFN/RBV
[10] = patients receiving ART, FDV plus PegIFN/RBV

C=C[C@@H]1C[C@]1(NC(=O)[C@@H]1C[C@@H](Oc2cc(-c3csc(C(=O)NC(C)C)n3)nc3c(Br)c(OC)ccc23)CN1C(=O)[C@@H](NC(=O)OC1CCCC1)C(C)(C)C)C(=O)O [FDV, 1-{[4-[8-Bromo-2-(2-isopropylcarbamoyl-thiazol-4-yl)-7-methoxy-quinolin-4-yloxy]-1-(R)-(2-cyclopentyloxycarbonylamino-3,3-(S)-dimethyl-butyryl)-pyrrolidine-(S)-2-carbonyl]-amino}-2-(S)-vinyl-cyclopropane-(R)-carboxylic acid]
Adverse event: diarrhea [1, 4]: 27%
Adverse event: fatigue [1, 4]: 33%
Adverse event: nausea [1, 4]: 37%
Serious AEs reported, number of patients [1, 4]: 32 patients
Serious AEs reported, share of patients [1, 4]: 10%
Deaths (among serious AEs; none considered related to study medications) ([1]; HCV/HIV coinfected patients, interim): 2 deaths
Patients discontinued early due to AEs ([1]; HCV/HIV coinfected patients, to date (interim)): 18 patients
Loss of HIV RNA suppression ([1]; patients on ART): No patient on ART experienced loss of HIV RNA suppression
Early virologic response rates ([2]; HCV GT1 patients coinfected with HIV, Weeks 4 and 12, FDV plus PegIFN/RBV, interim analysis): high early virologic response rates
HCV RNA BLD at week 12, patients [2, 5]: 82%
HCV RNA BLQ at week 4, patients [2, 5]: 80%
Virologic response Week 4 BLD [2, 6]: 51 (74) n (%)
Virologic response Week 12 BLD [2, 6]: 63 (91) n (%)
Virologic response Week 4 BLQ ([2]; Relapsers (N = 69)): 63 (91)^b n (%)
Virologic response Week 12 BLQ [2, 6]: 64 (93)^d n (%)
ETS (Week 4 BLQ and Week 8 BLD) [2, 6]: 61 (88) n (%)
Virologic response Week 4 BLD [2, 7]: 143 (60) n (%)
Virologic response Week 12 BLD [2, 7]: 195 (82) n (%)
Virologic response Week 4 BLQ ([2]; TN patients (N = 239)): 191 (80)^a n (%)
Virologic response Week 12 BLQ [2, 7]: 206 (86)^c n (%)
ETS (Week 4 BLQ and Week 8 BLD) [2, 7]: 184 (77)^e n (%)
Virologic response Week 4 BLD [2, 8]: 194 (63) n (%)
Virologic response Week 12 BLD [2, 8]: 258 (84) n (%)
Virologic response Week 4 BLQ ([2]; Total (N = 308)): 254 (82) n (%)
Virologic response Week 12 BLQ [2, 8]: 270 (88) n (%)
ETS (Week 4 BLQ and Week 8 BLD) [2, 8]: 245 (80) n (%)
HCV RNA BLD at Week 4, patients [2, 9]: 64%
HCV RNA BLD at week 12, patients [2, 9]: 64%
HCV RNA BLD at Week 4, patients [2, 10]: 63%
HCV RNA BLD at week 12, patients [2, 10]: 85%
HCV RNA BLD at week 12, number of patients of total [3]: 132/142
HCV RNA BLD at week 12, patients [3]: 93%
HCV RNA BLQ at week 4, number of patients of total [3]: 133/142
HCV RNA BLQ at week 4, patients [3]: 94%
